Test results from publication PMC6887723, “Design and Synthesis of 4-(Heterocyclic Substituted Amino)-1H-Pyrazole-3-Carboxamide Derivatives and Their Potent Activity against Acute Myeloid Leukemia (AML)” (International Journal of Molecular Sciences, 2019).
Several values for one entry are separate records, joined by “and”; a condition that tells them apart may be missing. Equal entries are not always repeated.

Columns and labels:
MV4-11 = assay: Cell growth inhibition assay (CellTiter-Glo); format: cell-based; details: Homo sapiens, 72 h, highest test concentration 1 μM, mean ± SD, three independent experiments
Description: The human AML cell line MV4-11 was purchased from the American Type Culture Collection (ATCC) (Manassas, VA, USA). MV4-11 was cultured in IMDM media (Corning, Crown Bioscience Inc., Taicang, China) with 10% FBS and supplemented with 2% L-glutamine and 1% pen/strep. The MV4-11 cell line was maintained in culture media at 37 °C with 5% CO2. The effects of target compounds on MV4-11 proliferation was performed by Crown Bioscience Inc. Cells were grown in 96-well culture plates (10,000/well). The compounds of various concentrations were added into the plates. Cell proliferation was determined after treatment with compounds for 72 h. Cell viability was measured using the CellTiter-Glo assay (Promega, Crown Bioscience Inc., Taicang, China) according to the manufacturer’s instructions, and luminescence was measured in a multilabel reader (Envision2014, PerkinElmer, Crown Bioscience Inc., Taicang, China). Data were normalized to the control group (DMSO) and represented by the mean of three independent measurements with standard error of <20%. IC50 values were calculated using Prism 5.0 (GraphPad Software, San Diego, CA, USA).

FLT3 = target: T1, FLT3 (Homo sapiens, UniProt P36888); assay: FLT3 kinase activity assay (Hot-Spot); format: biochemical; details: 10 μM ATP; mean ± SD, three independent experiments
T1 construct: purchased Reaction Biology Corp
T1 sequence (P36888 27-993): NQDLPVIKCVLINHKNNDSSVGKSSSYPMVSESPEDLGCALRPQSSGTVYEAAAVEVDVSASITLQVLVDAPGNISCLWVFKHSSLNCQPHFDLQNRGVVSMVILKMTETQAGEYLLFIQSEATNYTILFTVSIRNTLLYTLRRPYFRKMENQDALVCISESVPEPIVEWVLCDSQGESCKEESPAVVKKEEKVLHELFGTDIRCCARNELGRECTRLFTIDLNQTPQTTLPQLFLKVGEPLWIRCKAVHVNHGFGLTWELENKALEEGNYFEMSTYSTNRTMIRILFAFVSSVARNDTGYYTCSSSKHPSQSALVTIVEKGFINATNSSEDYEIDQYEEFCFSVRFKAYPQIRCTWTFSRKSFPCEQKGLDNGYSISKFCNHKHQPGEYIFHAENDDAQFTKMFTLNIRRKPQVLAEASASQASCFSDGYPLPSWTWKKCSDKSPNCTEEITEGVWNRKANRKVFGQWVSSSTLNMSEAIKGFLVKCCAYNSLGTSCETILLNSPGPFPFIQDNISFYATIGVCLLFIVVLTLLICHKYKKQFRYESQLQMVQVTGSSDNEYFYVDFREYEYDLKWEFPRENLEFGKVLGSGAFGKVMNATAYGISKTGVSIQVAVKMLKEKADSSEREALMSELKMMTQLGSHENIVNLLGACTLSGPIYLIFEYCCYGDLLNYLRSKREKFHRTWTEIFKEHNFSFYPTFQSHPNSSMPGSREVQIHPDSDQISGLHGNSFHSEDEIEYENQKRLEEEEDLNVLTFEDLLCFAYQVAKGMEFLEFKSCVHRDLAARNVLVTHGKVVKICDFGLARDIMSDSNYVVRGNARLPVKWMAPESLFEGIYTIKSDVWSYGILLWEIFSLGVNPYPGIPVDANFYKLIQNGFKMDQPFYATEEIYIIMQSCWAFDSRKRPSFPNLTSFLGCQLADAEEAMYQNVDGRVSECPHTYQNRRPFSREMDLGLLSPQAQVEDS
Description: (§1) Activities of kinases were determined using Hot-SpotSM kinase assay which was performed by Reaction Biology Corp. (Malvern PA, USA) as described previously.

CDK4 = target: T2, CDK4 (Homo sapiens, UniProt P11802); assay: CDK4 kinase activity assay (Hot-Spot); format: biochemical; details: 10 μM ATP; mean ± SD, three independent experiments
T2 construct: purchased Reaction Biology Corp
Description: as §1

CDK2 = target: T3, CDK2 (Homo sapiens, UniProt P24941); assay: CDK2 kinase activity assay (Hot-Spot); format: biochemical; details: 10 μM ATP; mean ± SD, three independent experiments
T3 construct: purchased Reaction Biology Corp
Description: as §1

BaF3 (FLT3 (ITD-F691L)) = assay: Antiproliferative activity in BaF3 cells transformed with FLT3-ITD-F691L; format: cell-based; details: Mus musculus, Table S2

T2 sequence (P11802 whole entry): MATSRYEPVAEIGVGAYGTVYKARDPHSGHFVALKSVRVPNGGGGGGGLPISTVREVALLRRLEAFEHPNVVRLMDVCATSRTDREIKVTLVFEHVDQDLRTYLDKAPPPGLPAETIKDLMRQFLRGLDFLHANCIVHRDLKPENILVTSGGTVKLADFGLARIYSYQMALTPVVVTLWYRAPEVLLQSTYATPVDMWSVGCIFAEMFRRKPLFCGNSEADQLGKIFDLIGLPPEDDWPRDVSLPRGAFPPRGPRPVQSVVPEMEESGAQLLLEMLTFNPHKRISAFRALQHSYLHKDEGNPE
T2 sequence (P24385 whole entry partner): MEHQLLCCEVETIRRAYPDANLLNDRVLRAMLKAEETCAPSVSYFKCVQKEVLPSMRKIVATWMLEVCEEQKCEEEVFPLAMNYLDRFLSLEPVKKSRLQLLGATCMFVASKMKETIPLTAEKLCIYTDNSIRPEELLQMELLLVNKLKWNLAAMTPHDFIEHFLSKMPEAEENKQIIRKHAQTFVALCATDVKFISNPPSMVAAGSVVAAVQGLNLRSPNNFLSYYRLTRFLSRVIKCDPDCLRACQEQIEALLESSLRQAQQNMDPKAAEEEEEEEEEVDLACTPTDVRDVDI

Row | SMILES | IC50 (MV4-11) [nM] | IC50 (FLT3) [nM] | IC50 (CDK4) | IC50 (CDK2) | melting point [°C] | IC50 (BaF3 (FLT3 (ITD-F691L))) [nM]
1 | O=C(Nc1ccc(N2CCNCC2)cn1)c1n[nH]cc1Nc1ncnc2sc3c(c12)CCCCC3 [Compound 8o] | 45.4 ± 1.07 | 8.28 ± 0.12 | 1.81 ± 0.023 nM | 109.2 ± 1.01 nM |  | 
2 | O=C(Nc1ccc(N2CCNCC2)cn1)c1n[nH]cc1Nc1ncnc2c1CCC2 [Compound 8q] | 458 ± 9.2 | 20.2 ± 0.35 | 123.4 ± 1.09 nM | 509 ± 10.3 nM | > 290 | 
3 | CN1CCCN(c2ccc(NC(=O)c3n[nH]cc3Nc3ncnc4sccc34)cc2)CC1 [Compound 8c] | 4.28 ± 0.35 | 0.176 ± 0.09 | 2.41 ± 0.21 nM | 3.51 ± 0.19 nM | 223 to 224 | 
4 | O=C(Nc1ccc(C(=O)N2CCOCC2)cc1)c1n[nH]cc1Nc1ncnc2sccc12 [Compound 8a] |  | 17.8 ± 0.89 | 33 ± 0.94 nM | 10.4 ± 0.41 nM | 243 to 244 | 
5 | O=C(Nc1ccc(N2CCOCC2)cc1)c1n[nH]cc1Nc1ncnc2[nH]ccc12 [Compound 8g] | 16 ± 0.43 | 1.945 ± 0.013 | 10.6 ± 0.24 nM | 3.74 ± 0.16 nM | 303 to 304 | 
6 | O=C(Nc1ccc(N2CC3CC2CN3)cc1)c1n[nH]cc1Nc1ncnc2sc3c(c12)CCC3 (centres unmarked) [Compound 8s] | 9.13 ± 0.11 | 0.82 ± 0.003 | 4.36 ± 0.19 nM | 5.43 ± 0.41 nM |  | 
7 | O=C(Nc1ccc(N2CCNCC2)cn1)c1n[nH]cc1Nc1ncnc2sc3c(c12)CCC3 [Compound 8n] | 19.9 ± 0.74 | 1.88 ± 0.09 | 4.85 ± 0.2 nM | 98.7 ± 1.33 nM |  | 
8 | CN1CCCN(c2ccc(NC(=O)c3n[nH]cc3Nc3ncnc4[nH]ccc34)cc2)CC1 [Compound 8d] | 9.5 ± 0.01 | 0.262 ± 0.01 | 5.32 ± 0.31 nM | 2.32 ± 0.014 nM | 263 to 264 | 
9 | O=C(Nc1ccc(N2CCNCC2)cc1)c1n[nH]cc1Nc1ncnc2[nH]ccc12 [Compound 8h] | 7.3 ± 0.33 | 0.038 ± 0.001 | 1.19 ± 0.09 nM | 0.282 ± 0.013 nM | 304 to 305 | 
10 | O=C(Nc1ccc(N2CC3CC2CN3)cc1)c1n[nH]cc1Nc1ncnc2sccc12 (centres unmarked) [Compound 8i] | 27.2 ± 0.43 | 3.24 ± 0.14 | 9.17 ± 0.33 nM | 24.5 ± 0.57 nM |  | 
11 | O=C(Nc1ccc(N2CCOCC2)cc1)c1n[nH]cc1Nc1ncnc2sc3c(c12)CCCC3 [Compound 8r] | 3.28 ± 0.19 | 3.8 ± 0.1 | 24.9 ± 0.29 nM | 9.29 ± 0.64 nM | 267 to 268 | 
12 | CC(C)(C)OC(=O)N1CCC(NC(=O)c2n[nH]cc2Nc2ncnc3[nH]ccc23)CC1 [Compound 3c] |  | 88.8 ± 1.06 | 87.1 ± 1.26 nM | 32.8 ± 1.34 nM | 268 to 269 | 
13 | O=C(Nc1ccc(N2CCNCC2)cn1)c1n[nH]cc1Nc1ncnc2[nH]ccc12 [Compound 8l, 4-((7H-Pyrrolo[2,3-d]pyrimidin-4-yl)amino)-N-(5-(piperazin-1-yl)pyridin-2-yl)-1H-pyrazole-3-carboxamide] | 134 ± 1.64 | 13.8 ± 0.37 | 23.1 ± 0.55 nM | 157 ± 3.22 nM | 288 to 290 | 
14 | CN1CCCN(c2cccc(NC(=O)c3n[nH]cc3Nc3ncnc4[nH]ccc34)c2)CC1 [Compound 8e] | 38.3 ± 1.21 | 2.71 ± 0.31 | 51 ± 0.88 nM | 5.49 ± 0.42 nM | 215 to 216 | 
15 | O=C(Nc1ccc(N2CC3CC2CN3)cc1)c1n[nH]cc1Nc1ncnc2[nH]ccc12 (centres unmarked) [Compound 8j, N-(4-(2,5-Diazabicyclo[2.2.1]heptan-2-yl)phenyl)-4-((7 H-pyrrolo[2,3-d]pyrimidin-4-yl)amino)-1H-pyrazole-3-carboxamide] | 21.4 ± 0.56 | 2.81 ± 0.11 | 17.8 ± 0.82 nM | 9.64 ± 0.46 nM | 248 to 249 | 
16 | O=C(Nc1ccccc1)c1n[nH]cc1Nc1ncnc2[nH]ccc12 [Compound 3a] |  | 5.1 ± 0.46 | 34.1 ± 0.94 nM | 0.2 ± 0.01 nM |  | 
17 | CN1CCN(C(=O)c2ccc(NC(=O)c3n[nH]cc3Nc3ncnc4sccc34)cc2)CC1 [Compound 8b] | 35.2 ± 0.83 | 19.18 ± 0.18 | 30.1 ± 0.99 nM | 8.42 ± 0.52 nM | 280 to 281 | 
18 | CN1CCN(Cc2ccc(NC(=O)c3n[nH]cc3Nc3ncnc4[nH]ccc34)cc2)CC1 [FN-1501, 4-((7H-Pyrrolo[2,3-D]Pyrimidin-4-Yl)Amino)-N-(4-((4-Methylpiperazin-1-Yl)Methyl)Phenyl)-1H-Pyrazole-3-Carboxamide, reference compound] | 9 ± 0.27 |  | 0.39 nM and 1.02 nM | 1.02 nM and 2.33 nM |  | 55.9
19 | O=C(Nc1ccncc1)c1n[nH]cc1Nc1ncnc2[nH]ccc12 [Compound 3b] |  | 5.83 ± 0.74 | 54.2 ± 1.26 nM | 4.31 ± 0.91 nM |  | 
20 | O=C(Nc1ccc(N2CCNCC2)cn1)c1n[nH]cc1Nc1ncnc2sccc12 [Compound 8k, N-(5-(Piperazin-1-yl)pyridin-2-yl)-4-(thieno[2,3-d]pyrimidin-4-ylamino)-1H-pyrazole-3-carboxamide] | 51.1 ± 1.34 | 6.03 ± 0.16 | 22.3 ± 0.92 nM | 315.2 ± 2.3 nM | > 300 | 
21 | O=C(NC1CCNCC1)c1n[nH]cc1Nc1ncnc2[nH]ccc12 [Compound 3d] |  | 74.3 ± 1.21 | 77.4 ± 1.1 nM | 63.2 ± 0.91 nM |  | 
22 | O=C(Nc1ccc(N2CCNCC2)cn1)c1n[nH]cc1Nc1ncnc2sc3c(c12)CCCC3 [Compound 8p] |  | 7.45 ± 0.19 | 3.81 ± 0.26 nM | 86.4 ± 1.36 nM | 266 to 267 | 
23 | CN1CCCN(c2cccc(NC(=O)c3n[nH]cc3Nc3ncnc4sccc34)c2)CC1 [Compound 8f] | 54.1 ± 1.73 | 8.07 ± 0.21 | 67.3 ± 1.09 nM | 31.7 ± 0.55 nM | > 300 | 
